Measured values taken from paper PMC7206119, “RIP1 inhibition blocks inflammatory diseases but not tumor growth or metastases” (Cell Death and Differentiation, 2019).

Legend:
Assay in all cases: biochemical
Design in all cases: Thermo Fisher SelectScreen kinase panel: Z'-LYTE and Adapta activity, LanthaScreen binding
BMX = BMX (Homo sapiens, UniProt P51813)
Method in brief: (§1)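 GNE684 profiled at 10 µM across 221 kinases with Z'-LYTE and Adapta activity and LanthaScreen binding formats. Also screened at 10 µM against 468 kinases in KINOMEscan scanMAX binding assay.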

BRAF = BRAF (Homo sapiens, UniProt P15056)
Method in brief: as §1

CDK8/cyclinC = CDK8/cyclinC (Homo sapiens, UniProt P49336)
Method in brief: as §1

CLK2 = CLK2 (Homo sapiens, UniProt P49760)
Method in brief: as §1

CSF1R = CSF1R (Homo sapiens, UniProt P07333)
Method in brief: as §1

DAPK1 = DAPK1 (Homo sapiens, UniProt P53355)
Method in brief: as §1

DCAMKL2 = target: T1, DCAMKL2 (Homo sapiens, UniProt Q8N568)
T1 construct: gene DCLK2
Method in brief: as §1

EPHB1 = EPHB1 (Homo sapiens, UniProt P54762)
Method in brief: as §1

HIPK2 = HIPK2 (Homo sapiens, UniProt Q9H2X6)
Method in brief: as §1

IKK-epsilon = target: T2, IKK-epsilon (Homo sapiens, UniProt Q14164)
T2 construct: gene IKBKE
Method in brief: as §1

IRR = target: T3, IRR (Homo sapiens, UniProt P14616)
T3 construct: gene INSRR
Method in brief: as §1

JNK2 = target: T4, JNK2 (Homo sapiens, UniProt P45984)
T4 construct: gene MAPK9
Method in brief: as §1

MLK1 = target: T5, MLK1 (Homo sapiens, UniProt P80192)
T5 construct: gene MAP3K9
Method in brief: as §1

PAK3 = PAK3 (Homo sapiens, UniProt O75914)
Method in brief: as §1

RIPK3 = RIPK3 (Homo sapiens, UniProt Q9Y572)
Method in brief: as §1

SGK1 = SGK1 (Homo sapiens, UniProt O00141)
Method in brief: as §1

SGK3 = SGK3 (Homo sapiens, UniProt Q96BR1)
Method in brief: as §1

SRC = SRC (Homo sapiens, UniProt P12931)
Method in brief: as §1

STK16 = STK16 (Homo sapiens, UniProt O75716)
Method in brief: as §1

TNK2 = TNK2 (Homo sapiens, UniProt Q07912)
Method in brief: as §1

TXK = TXK (Homo sapiens, UniProt P42681)
Method in brief: as §1

YSK1 = target: T6, YSK1 (Homo sapiens, UniProt O00506)
T6 construct: gene STK25
Method in brief: as §1

p38-beta = target: T7, p38-beta (Homo sapiens, UniProt Q15759)
T7 construct: gene MAPK11
Method in brief: as §1

RIPK3, sequence (Q9Y572 whole entry): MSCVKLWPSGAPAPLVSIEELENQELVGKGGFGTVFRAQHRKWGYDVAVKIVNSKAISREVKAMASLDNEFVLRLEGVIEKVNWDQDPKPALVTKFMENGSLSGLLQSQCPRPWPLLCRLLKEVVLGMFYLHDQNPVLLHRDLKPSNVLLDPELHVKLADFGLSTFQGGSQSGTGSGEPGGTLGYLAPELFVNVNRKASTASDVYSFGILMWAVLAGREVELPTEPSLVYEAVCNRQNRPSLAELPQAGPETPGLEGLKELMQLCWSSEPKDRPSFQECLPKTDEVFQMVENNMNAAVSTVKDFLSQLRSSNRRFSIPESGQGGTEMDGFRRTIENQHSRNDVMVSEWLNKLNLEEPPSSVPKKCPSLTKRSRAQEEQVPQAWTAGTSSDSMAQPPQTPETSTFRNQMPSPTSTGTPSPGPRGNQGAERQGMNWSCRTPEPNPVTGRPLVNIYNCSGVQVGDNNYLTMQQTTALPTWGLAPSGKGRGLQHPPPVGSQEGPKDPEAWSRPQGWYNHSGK
CDK8/cyclinC, sequence (P49336 whole entry): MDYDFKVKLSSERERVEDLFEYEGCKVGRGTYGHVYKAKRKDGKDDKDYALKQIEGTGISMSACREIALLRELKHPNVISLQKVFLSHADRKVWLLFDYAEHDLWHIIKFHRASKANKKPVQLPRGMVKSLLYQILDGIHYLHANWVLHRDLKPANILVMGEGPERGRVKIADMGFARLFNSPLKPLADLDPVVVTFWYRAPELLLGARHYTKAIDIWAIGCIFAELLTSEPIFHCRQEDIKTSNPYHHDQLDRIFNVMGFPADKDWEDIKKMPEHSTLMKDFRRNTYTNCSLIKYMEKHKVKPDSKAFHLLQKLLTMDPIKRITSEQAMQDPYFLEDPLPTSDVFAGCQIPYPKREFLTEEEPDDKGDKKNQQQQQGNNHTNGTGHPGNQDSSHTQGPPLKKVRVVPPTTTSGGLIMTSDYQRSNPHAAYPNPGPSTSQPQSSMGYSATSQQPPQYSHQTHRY
CDK8/cyclinC, sequence (P24863 whole entry partner): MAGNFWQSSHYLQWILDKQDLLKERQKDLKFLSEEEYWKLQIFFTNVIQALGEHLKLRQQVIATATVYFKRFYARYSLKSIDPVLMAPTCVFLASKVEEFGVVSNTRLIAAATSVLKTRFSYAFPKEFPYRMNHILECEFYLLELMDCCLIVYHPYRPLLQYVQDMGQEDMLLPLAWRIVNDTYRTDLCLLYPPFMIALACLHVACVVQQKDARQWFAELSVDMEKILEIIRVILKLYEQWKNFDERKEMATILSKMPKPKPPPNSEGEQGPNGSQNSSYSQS
EPHB1, sequence (P54762 whole entry): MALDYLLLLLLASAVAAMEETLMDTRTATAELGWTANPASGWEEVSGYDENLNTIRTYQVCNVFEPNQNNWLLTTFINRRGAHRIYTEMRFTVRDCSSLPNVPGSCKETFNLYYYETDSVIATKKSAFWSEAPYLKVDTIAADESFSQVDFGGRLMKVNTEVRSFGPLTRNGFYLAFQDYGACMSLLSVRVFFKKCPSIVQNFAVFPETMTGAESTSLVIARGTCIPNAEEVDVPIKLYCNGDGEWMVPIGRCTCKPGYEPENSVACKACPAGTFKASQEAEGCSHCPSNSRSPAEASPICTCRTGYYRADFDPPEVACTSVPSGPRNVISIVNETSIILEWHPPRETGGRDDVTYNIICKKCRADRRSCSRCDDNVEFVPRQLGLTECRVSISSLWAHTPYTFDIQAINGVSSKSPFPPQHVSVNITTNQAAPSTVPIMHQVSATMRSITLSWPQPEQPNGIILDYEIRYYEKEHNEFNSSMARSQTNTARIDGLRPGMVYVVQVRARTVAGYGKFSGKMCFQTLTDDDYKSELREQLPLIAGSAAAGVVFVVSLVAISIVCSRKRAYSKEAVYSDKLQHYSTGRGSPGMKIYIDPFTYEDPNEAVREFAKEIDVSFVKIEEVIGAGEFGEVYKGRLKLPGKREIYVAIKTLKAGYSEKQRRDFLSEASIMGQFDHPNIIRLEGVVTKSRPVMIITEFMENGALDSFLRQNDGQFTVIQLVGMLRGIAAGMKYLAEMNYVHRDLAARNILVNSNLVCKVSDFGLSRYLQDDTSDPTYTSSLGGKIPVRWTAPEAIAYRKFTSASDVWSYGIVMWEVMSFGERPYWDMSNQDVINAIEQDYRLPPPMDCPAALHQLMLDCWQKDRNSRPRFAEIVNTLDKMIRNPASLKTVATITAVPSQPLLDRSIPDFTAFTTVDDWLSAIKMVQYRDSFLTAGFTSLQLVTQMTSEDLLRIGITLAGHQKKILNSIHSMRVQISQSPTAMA
PAK3, sequence (O75914 whole entry): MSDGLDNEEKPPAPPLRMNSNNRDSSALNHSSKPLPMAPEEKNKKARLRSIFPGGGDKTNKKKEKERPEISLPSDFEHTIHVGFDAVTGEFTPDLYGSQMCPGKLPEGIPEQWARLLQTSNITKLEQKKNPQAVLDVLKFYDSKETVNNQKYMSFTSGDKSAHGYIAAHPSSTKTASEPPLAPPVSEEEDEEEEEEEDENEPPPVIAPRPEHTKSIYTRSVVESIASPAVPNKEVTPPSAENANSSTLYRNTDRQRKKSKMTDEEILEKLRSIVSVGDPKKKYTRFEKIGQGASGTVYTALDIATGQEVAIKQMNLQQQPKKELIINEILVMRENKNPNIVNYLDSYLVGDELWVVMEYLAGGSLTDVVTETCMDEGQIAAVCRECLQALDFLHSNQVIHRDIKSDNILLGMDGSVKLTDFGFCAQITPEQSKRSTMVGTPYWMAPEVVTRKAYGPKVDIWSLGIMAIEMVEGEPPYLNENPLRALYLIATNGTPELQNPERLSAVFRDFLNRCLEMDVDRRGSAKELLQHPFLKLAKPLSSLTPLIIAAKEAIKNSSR
TNK2, sequence (Q07912 whole entry): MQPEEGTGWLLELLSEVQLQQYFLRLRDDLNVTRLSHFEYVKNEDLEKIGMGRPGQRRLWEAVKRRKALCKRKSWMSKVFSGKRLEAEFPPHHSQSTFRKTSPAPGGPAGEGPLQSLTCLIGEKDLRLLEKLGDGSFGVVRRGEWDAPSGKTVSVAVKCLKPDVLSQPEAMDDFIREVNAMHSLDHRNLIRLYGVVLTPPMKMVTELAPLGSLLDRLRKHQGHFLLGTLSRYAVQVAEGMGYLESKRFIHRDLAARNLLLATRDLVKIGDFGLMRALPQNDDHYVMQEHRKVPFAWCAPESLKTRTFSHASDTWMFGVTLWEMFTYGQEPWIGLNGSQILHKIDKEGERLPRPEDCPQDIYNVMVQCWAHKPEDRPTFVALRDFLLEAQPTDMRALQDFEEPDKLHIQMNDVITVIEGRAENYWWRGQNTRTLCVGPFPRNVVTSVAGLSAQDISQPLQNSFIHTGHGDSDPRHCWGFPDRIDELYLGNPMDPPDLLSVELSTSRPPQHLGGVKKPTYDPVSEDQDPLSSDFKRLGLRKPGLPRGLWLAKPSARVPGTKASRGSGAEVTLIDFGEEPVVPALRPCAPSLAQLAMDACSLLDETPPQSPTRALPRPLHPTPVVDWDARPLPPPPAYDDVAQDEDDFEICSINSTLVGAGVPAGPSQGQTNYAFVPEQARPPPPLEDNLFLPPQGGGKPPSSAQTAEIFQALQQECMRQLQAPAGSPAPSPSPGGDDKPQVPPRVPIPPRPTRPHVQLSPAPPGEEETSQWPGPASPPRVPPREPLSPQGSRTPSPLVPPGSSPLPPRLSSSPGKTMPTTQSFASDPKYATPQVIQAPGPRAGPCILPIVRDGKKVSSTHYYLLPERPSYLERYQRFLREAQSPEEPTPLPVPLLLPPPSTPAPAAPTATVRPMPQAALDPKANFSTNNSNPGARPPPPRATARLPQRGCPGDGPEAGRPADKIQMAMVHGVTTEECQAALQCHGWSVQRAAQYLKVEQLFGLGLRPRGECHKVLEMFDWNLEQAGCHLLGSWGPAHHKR
SRC, sequence (P12931 whole entry): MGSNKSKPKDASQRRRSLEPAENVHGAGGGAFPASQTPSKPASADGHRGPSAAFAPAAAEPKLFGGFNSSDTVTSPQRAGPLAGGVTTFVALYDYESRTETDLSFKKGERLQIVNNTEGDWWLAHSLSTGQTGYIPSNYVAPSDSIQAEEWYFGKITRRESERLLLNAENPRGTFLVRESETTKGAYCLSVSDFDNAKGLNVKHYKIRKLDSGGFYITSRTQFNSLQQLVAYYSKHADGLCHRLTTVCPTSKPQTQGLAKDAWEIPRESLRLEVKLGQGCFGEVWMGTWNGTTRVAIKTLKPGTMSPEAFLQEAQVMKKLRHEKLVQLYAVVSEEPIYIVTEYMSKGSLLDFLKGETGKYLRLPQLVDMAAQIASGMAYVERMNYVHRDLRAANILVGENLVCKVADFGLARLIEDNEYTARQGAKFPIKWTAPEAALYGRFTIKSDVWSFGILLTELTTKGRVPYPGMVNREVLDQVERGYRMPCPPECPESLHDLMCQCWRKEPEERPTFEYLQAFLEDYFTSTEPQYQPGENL
SGK3, sequence (Q96BR1 whole entry): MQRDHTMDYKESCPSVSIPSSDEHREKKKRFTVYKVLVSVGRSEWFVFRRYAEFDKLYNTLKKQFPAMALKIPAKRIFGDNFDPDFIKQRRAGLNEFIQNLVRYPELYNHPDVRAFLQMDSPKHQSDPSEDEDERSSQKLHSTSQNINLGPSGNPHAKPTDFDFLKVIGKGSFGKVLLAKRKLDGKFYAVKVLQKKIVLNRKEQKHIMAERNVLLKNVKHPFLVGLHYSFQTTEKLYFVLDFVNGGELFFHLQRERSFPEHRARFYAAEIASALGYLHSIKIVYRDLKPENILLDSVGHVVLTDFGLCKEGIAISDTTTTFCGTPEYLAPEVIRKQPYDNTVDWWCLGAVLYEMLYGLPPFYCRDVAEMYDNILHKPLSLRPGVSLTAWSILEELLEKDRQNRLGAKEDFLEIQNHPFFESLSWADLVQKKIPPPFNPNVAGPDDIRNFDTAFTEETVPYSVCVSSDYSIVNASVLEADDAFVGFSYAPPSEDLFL

`COc1cc2c(cn1)N(C)C(=O)[C@@H](NC(=O)c1nc3n(n1)[C@H](c1ccccc1)CC3)CC2` [GNE684, (S)-N-((S)-7-methoxy-1-methyl-2-oxo-2,3,4,5-tetrahydro-1H-pyrido[3,4-b]azepin-3-yl)-5-phenyl-6,7-dihydro-5H-pyrrolo[1,2-b][1,2,4]triazole-2-carboxamide] was tested, and the inhibition at 10 µM (BMX) was 4.5%, the inhibition at 10 µM (BRAF) was 6.5% and the inhibition at 10 µM (CDK8/cyclinC) was 4.5%. It also gave an inhibition at 10 µM (CLK2) of 2.5%, an inhibition at 10 µM (CSF1R) of 2% and an inhibition at 10 µM (DAPK1) of -11.5%. It also gave an inhibition at 10 µM (DCAMKL2) of 2%, an inhibition at 10 µM (EPHB1) of 3% and an inhibition at 10 µM (HIPK2) of -1.5%. The inhibition at 10 µM (IKK-epsilon) was 3%, the inhibition at 10 µM (IRR) was 12% and the inhibition at 10 µM (JNK2) was -4%. The inhibition at 10 µM (MLK1) was 7.5%, the inhibition at 10 µM (PAK3) was 6% and the inhibition at 10 µM (RIPK3) was -3%. The inhibition at 10 µM (SGK1) was -1%, the inhibition at 10 µM (SGK3) was 1.5% and the inhibition at 10 µM (SRC) was -1%. It also gave an inhibition at 10 µM (STK16) of -2%, an inhibition at 10 µM (TNK2) of 2.5% and an inhibition at 10 µM (TXK) of 5.5%. For the same molecule, the inhibition at 10 µM (YSK1) was 3.5% and the inhibition at 10 µM (p38-beta) was 4.5%.
